Test results taken from patent US20100310637A1, “COMPOSITION AND METHOD FOR THE TREATMENT OR PREVENTION OF GLAUCOMA AND OCULAR HYPERTENSION” (priority 2007, published 2010).

Assays:
filtering bleb = assay: Success rate of filtering bleb after trabeculectomy; format: in vivo, rabbit; details: rabbits after trabeculectomy; daily injections to the filtering bleb
Experimental: 15 rabbits underwent trabeculectomy. Five rabbits were treated with daily insulin injections to the filtering bleb, 5 others received denaturized insulin and another 5 rabbits received same volume and same frequency of balanced salt solution. The results of successful blebs at month 4 were 4 out of 5 for the insulin group, and 2 out of 5 and 3 out of 5 for the denaturized insulin and the balanced salt solution respectively.

diabetic patients = assay: Systemic insulin and intraocular pressure in humans; format: in vivo, human
From the text: Recently there is a growing worldwide trend towards appreciating the merits of insulin in the treatment of diabetic patients. Contrary to the previous practice, patient are encouraged now to switch from oral hypoglycemic treatment to insulin treatment, or even to start therapy with insulin without a period of therapy with the oral hypoglycemic agents. Twelve diabetic patients were scheduled to start insulin therapy. […] None of them had been found with diabetic retinopathy or glaucoma. The drug prescription history was reviewed, and none of the twelve patients was found with systemic therapy that can affect the intraocular pressure measurements. So far, none of them was switched to systemic therapy with drugs that can affect the intraocular pressure. Pachymetry measurements have shown stability, without correlation with the level of intraocular pressure. There was also no correlation between blood glucose levels and the intraocular pressure. The patients were followed at 2 weeks interval in first months and then once every 3 weeks. […] After 2 months reduction in intraocular pressure was higher than 15% from baseline in all cases. At the end of 3 months the reduction in intraocular pressure for all patients ranged from 24% up to 35% from baseline. This level of intraocular pressure reduction was maintained during the follow up until now.

rat eye = assay: Reduction in intraocular pressure following topical ocular (corneal) insulin administration, rat; format: in vivo; details: repeated small volume applications on upper third of the cornea
Experimental: (§1) Several Insulin preparations were administered to the cornea of rats and rabbits by repeated small volume applications on the upper third of the cornea with necessary measures to minimize conjunctival absorption and drainage to the nasal cavity. Reductions in intraocular pressure ranged from 28% to 36.5% in the rabbit eye and 22% to 29% in the rat eye.

rabbit eye = assay: Reduction in intraocular pressure following topical ocular (corneal) insulin administration, rabbit; format: in vivo; details: repeated small volume applications on upper third of the cornea
Experimental: as §1

| Substance | successful blebs at month 4 (filtering bleb) | intraocular pressure versus baseline (diabetic patients; 1 month after starting insulin therapy, twelve diabetic patients) | reduction in intraocular pressure from baseline (diabetic patients; after 2 months of insulin therapy, all cases) | reduction in intraocular pressure (rat eye) | reduction in intraocular pressure (rabbit eye) |
| --- | --- | --- | --- | --- | --- |
| insulin | 4 out of 5 | significantly lower than baseline values only in 5 patients | higher than 15% | – | – |
| denaturized insulin: similar insulin preparation that was denaturized, used as control | 2 out of 5 | – | – | no stastistically significant change | no stastistically significant change |
